The assay deals with SK-ES xenograft. Nature of the assay: Orthotopic mouse xenograft model, SK-ES, IP dosing. Format: in vivo. The settings on record: for Regression of tumor volume over 3 days: SK-ES xenograft, 3-day, six-dose. Here is the method:
A series of models that combined results from in vitro colony assays and in vivo PK data were developed to evaluate several potential dosing schemes for the mice (Supplementary Figures 1A-E). We selected an IP dosing strategy (twice daily (BID) injections of […] racemic mixture) that would maintain a 3 ¼M plasma levels for greater than 72 hours in the mice (Figure 3A). With this IP dosing regimen, xenograft growth of A4573 was 70% less in the YK-4-279 treatment group compared to vehicle control (Figure 3B, p=0.04). […] To confrm the impact of YK-4-279 treatment on xenograft growth, mice with SK-ES xenografts were treated with racemic, (S), or (R)-YK-4-279 until control tumors reached 1 cm^3. Xenograft growth was reduced for those mice receiving both racemic and (S)-YK-4-279 over the control (Figure 3D, p=0.02 and p=0.003, respectively). […] Tumors were analyzed for drug levels of racemic, (R)-, and (S)-YK-4-279. Three of four mice treated with racemic compound had tumor levels of (S)-YK-4-279 that ranged from ~12-35 ¼g eq/g, which correlated with tumor growth ratios of less than 1.0, indicating response to the drug (Figure 3F). Those animals treated with the active (S)-YK-4-279 levels had tumor levels that were below 10 ¼g eq/g (Figure 3F). Tumor levels of (R)-YK-4-279 are also provided (Supplementary Figure 1F).
In order to evaluate tumors from animals treated in a similar fashion, including resection prior to central necrosis in controls, a 3-day, six-dose, experiment was executed. Treatment was initiated with racemic, (S)-, or (R)-YK-4-279 using BID IP administration at 400 mg/kg when tumors were well established at a volume of 250 to 300 mm^3. Both ES models treated with either racemic or (S)-YK-4-279 regressed by 25–30% of tumor volume over 3 days, while tumors grew in control and (R)-YK-4-279 treated animals (Figures 4A and B). Two hours following the 6th dose, mice were euthanized for tumor analysis. […] To confirm the apoptotic cell death, sections from A4573 tumors were stained with TUNEL (Figures 4D) and there was a 3 – 4 fold increase in TUNEL-positive cells treated with (S)-YK-4-279 compared to (R)-YK-R-279 treated tumors (Figure 4E). […] Levels of each enantiomer were measured in tumor samples and (S)-YK-4-279 levels correlated with clinical regression (Supplemental Figure 2B–E).
Two million A4573 or SK-ES Ewing's sarcoma cells in 0.1 mL were injected into an orthotopic paraosseous location, adjacent to the left proximal tibia, in 5-week-old female severe combined immunodeficient-beige (SCID/bg) mice (Harlan Laboratories, Inc., Indianapolis, IN). After primary tumors reached 250 – 300 mm^3 size, mice were randomized and received intraperitoneal injection (IP) with vehicle control (0.25% Lecithin solution or DMSO), (S)-YK-4-279, (R)-YK-4-279 or racemic YK-4-279 at a dose of 400 mg/kg twice a day (BID) for 7 days in a week. The tumor volume was determined by the formula (D × d2/6) × p, where D was the longer diameter and d was the shorter diameter. Tumor volume was monitored every day by caliper until the tumor size reaches 1cm^3. Mice were euthanized and primary tumors were collected. For the pharmacodynamics study mice were randomized and received 6 doses treatment with vehicle control (0.25% Lecithin solution or DMSO), (S)-YK-4-279, (R)-YK-4-279 or racemic YK-4-279 at a dose of 400 mg/kg twice a day (BID). Mice were euthanized after 2 hours of last 6th dosing and primary tumors were collected. Animal studies were approved by an Institutional Animal Care and Use Committee of the Georgetown University.
The plasma and tumor sample analysis was performed using calibration standards and Quality Control (QC) samples prepared in control rat or mouse plasma and tumor tissues. Plasma and tumor calibration standards were prepared from stock solutions of YK-4-279. […]

SMILES strings stand for the structures.

On to `COc1ccc(C(=O)CC2(O)C(=O)Nc3c(Cl)ccc(Cl)c32)cc1` (stereo not drawn) [YK-4-279], for which, for the setting “SK-ES xenograft mice, BID IP 400 mg/kg, p=0.013 vs control”, the Overall survival entry is listed as “improved overall survival”. In addition, the “Xenograft growth less than control group” value (SK-ES xenograft mice, BID IP racemic mixture (375 mg/kg in text, 400 mg/kg in Figure 3 legend), p=0.02) is given as 70%. For the same compound, where the note is “BID IP 400 mg/kg”, the “Regression of tumor volume over 3 days” value is reported as 25–30%. In addition, the “Xenograft growth over the control” value (SK-ES xenografts, BID IP 400 mg/kg until control tumors reached 1 cm^3) is listed as “reduced”. In addition, the Tumor growth ratios result (SK-ES xenografts, three of four mice treated with racemic compound) is listed as “less than 1.0”.

With `COc1ccc(C(=O)C[C@]2(O)C(=O)Nc3c(Cl)ccc(Cl)c32)cc1` [(R)-YK-4-279], where the note is “BID IP 400 mg/kg”, the “Regression of tumor volume over 3 days” value is reported as “tumors grew”.

The values are drawn from publication PMC3964211, “Pharmacokinetic modeling optimizes inhibition of the ‘undruggable’ EWS-FLI1 transcription factor in Ewing Sarcoma” (Oncotarget, 2013).
